Laboratory results from patent publication US20250145676A1, “FUNCTIONAL EXPRESSION OF ECTOPIC TMC1 AND TMC2 IN HETEROLOGOUS CELLS” (The Hong Kong University of Science and Technology, priority 2023, published 2025).

Target: T1, Fyn-mTMC2-mCherry+mTMIE channel (Mus musculus, UniProt Q8R4P4)
T1 construct: expressed in transfected cells; host or cells: PK-HEK293T (PIEZO1-knockout HEK293T)
T1 sequence (Q8R4P4 1-888): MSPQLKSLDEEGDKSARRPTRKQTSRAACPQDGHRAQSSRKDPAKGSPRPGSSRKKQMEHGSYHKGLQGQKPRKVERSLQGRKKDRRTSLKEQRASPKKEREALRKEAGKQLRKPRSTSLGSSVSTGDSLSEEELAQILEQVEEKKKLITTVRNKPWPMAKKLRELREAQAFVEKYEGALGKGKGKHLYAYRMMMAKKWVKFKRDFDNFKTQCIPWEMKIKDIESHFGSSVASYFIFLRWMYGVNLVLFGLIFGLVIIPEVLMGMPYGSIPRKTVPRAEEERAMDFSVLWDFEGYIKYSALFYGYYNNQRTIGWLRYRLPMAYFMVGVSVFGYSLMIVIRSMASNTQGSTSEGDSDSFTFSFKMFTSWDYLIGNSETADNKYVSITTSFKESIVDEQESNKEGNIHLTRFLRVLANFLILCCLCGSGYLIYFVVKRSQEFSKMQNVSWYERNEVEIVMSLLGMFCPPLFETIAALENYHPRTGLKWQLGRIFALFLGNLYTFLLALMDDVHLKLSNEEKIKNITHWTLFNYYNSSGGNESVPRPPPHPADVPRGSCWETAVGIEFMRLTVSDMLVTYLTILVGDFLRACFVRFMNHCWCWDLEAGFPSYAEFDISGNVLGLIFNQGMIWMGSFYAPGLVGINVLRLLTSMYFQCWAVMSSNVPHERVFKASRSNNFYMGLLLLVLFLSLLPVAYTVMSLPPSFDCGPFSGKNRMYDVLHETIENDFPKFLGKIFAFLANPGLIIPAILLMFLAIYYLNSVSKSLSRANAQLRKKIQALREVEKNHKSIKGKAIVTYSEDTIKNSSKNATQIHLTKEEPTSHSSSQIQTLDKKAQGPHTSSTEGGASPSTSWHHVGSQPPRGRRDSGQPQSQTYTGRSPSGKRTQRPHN
T1 sequence (Q8K467 29-153 partner): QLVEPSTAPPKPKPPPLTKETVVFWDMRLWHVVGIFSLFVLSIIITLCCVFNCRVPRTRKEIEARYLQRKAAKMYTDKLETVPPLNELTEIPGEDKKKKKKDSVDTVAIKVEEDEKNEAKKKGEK
Experiment: Whole-cell poking patch-clamp assay, DHS sensitivity of MS currents
Type: cell-based
Conditions: 2 mM DHS in the bath; PK-HEK293T cells co-expressing Fyn-mTMC2-mCherry and mTMIE; 4 experiments, p=0.0044
Description: Briefly, PK-HEK293T cells were incubated for 24 h after transfection before performing the whole-cell patch-clamp assay at room temperature. For co-transfection of two plasmids, the w/w ratio of TMC1/2 plasmids and TMIE plasmid was 3:1. The bath solution contained (in mM) 137 NaCl, 5.8 KCl, 0.7 NaH2PO4, 10 HEPES, 1.3 CaCl2, 0.9 MgCl2, 5.6 glucose (pH 7.3 with NaOH); the pipette solution contained (in mM) 137 CsCl, 0.1 EGTA, 10 HEPES, 3.5 MgCl2 (pH 7.3 with CsOH). The recording glass pipettes (1B150-4 Borosilicate Glass Capillaries, World Precision Instruments) were pulled and polished using a pipette puller (DMZ, Zeitz Instruments) and featured a resistance of 3-5 MQ. The mechanical stimulus was applied by poking cells with a fire-polished glass probe with a tip diameter of 2-3 μm. […] The reversal potentials were calculated using Vpipette at zero current with correction for the junction potential of the pipette and bath solutions (+1.2 mV for whole cell recording). Data were analyzed with Clampfit 10.7 (Molecular Devices). For the measurement of the inactivation time constant, all current responses, except for traces with a noticeable shift in baseline, were individually calculated and averaged.

CN[C@@H]1[C@H](O[C@H]2[C@H](O[C@H]3[C@H](O)[C@@H](O)[C@H](NC(=N)N)[C@@H](O)[C@@H]3NC(=N)N)O[C@@H](C)[C@]2(O)CO)O[C@@H](CO)[C@H](O)[C@H]1O [DHS, dihydrostreptomycin]
DHS-sensitivity of whole-cell MS currents: DHS-sensitive
